Assays:
EtBr-CT-DNA complex = assay: Competitive binding with ethidium bromide for CT-DNA; set-up: species or system calf
Method: Ethidium bromide (EtBr) displacement experiments were performed by incremental addition of compound 31 to complex of EtBr-DNA. The EtBr (3 µM) and CT-DNA (30 µM) were titrated with incremental addition of compound 31 (0–85 µM) in phosphate buffer (pH 7.4). […] The quenching constant (Kq) was calculated using the Stern-Volmer equation (Eq. 2). The apparent binding constant (Kapp) was obtained from known binding constant for ethidium bromide (KEtBr = 1 × 10^7 M^−1) using the following equation (Eq. 4).4 Kapp=KEtBr[EtBr]/[compound]50% where [compound]50% and [EtBr] are the concentrations of the compound at 50% quenching of DNA-bound ethidium bromide emission intensity and ethidium bromide (3 µM), respectively.

[1] = target: bovine serum albumin (BSA) (Bos taurus, UniProt P02769); assay: Förster resonance energy transfer (FRET) with BSA; assay type: binding; details: BSA donor, compound acceptor
Sequence of bovine serum albumin (BSA) (P02769 25-607): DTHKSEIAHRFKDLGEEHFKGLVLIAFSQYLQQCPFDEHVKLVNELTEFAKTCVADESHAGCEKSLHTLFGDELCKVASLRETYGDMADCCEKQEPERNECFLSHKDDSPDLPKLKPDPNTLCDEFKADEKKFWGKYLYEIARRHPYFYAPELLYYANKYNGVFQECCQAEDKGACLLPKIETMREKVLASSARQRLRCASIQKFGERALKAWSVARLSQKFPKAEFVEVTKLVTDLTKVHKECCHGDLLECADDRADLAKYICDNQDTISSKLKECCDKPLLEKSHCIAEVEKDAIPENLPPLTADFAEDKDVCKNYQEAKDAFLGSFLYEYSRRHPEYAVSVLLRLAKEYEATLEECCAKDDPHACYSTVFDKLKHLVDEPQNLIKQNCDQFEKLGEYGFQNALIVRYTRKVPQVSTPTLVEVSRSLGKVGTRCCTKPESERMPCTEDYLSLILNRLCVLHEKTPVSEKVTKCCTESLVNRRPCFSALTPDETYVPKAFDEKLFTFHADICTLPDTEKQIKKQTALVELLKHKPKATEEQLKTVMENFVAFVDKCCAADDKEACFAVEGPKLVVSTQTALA
Excerpt: The energy transfer efficiency from BSA and compound 31 can be calculated using Eq. 5 [27]:5 E=1−F/Fo=Ro6/Ro6+r^6
F and Fo are the BSA fluorescence intensities in the presence and absence of the derivative 31, r is the distance among the acceptor and the donor, whereas Ro is the critical distance when the efficiency of energy transfer is 50%. Ro can be calculated using Eq. 6 [28]:6 Ro6=8.8×10^−25k^2η^−4ΦJ where k^2 is the orientation factor of the dipole, ɳ is the refracted index of the medium, Ф the fluorescence quantum yield of the donor, and J is the overlap integral of the fluorescence emission spectrum of the donor with the absorption spectrum of the acceptor. The value of J can be calculated using Eq. 7 [29]:7 J=ΣF(λ)ε(λ)λ^4Δλ/ΣF(λ)Δλ where F(λ) is fluorescence intensity of the donor i.e. BSA without acceptor and ε(λ) is molar absorption coefficient of the acceptor i.e. compound 31 at the wavelength λ, respectively. The values of k^2 = 2/3, ɳ = 1.336 and Ф = 0.15 were used for the calculations.

CT-DNA = CT-DNA binding, fluorescence quenching (Stern-Volmer, Scatchard); set-up: species or system calf
Method: The stock solution of compound 31 (10^−3 M) was prepared in DMSO and diluted to required concentration using appropriate buffer solution. Calf thymus (CT)-DNA was dissolved in 10 mM Tris buffer of pH 7.4 having 1 mM EDTA at room temperature. The purity of DNA solution was determined by using the ratio of absorbance at 260 nm and 280 nm wavelength. Extinction coefficient 6600 M^−1 cm^−1 of single nucleotide at 260 nm was used to determine the concentration of the DNA solution. The stock solution of BSA (10^−3 M) was prepared in distilled water and stored at 4 °C temperature.
In the case of BSA experiments, fluorescence emission spectra were performed for BSA (10 µM) with increasing concentration of compound 31 (0–10 µM) in phosphate buffer (pH 7.4) at room temperature upon excitation at 280 nm. The dissociation constant of compound 31 was estimated by titrating the complex of compound 31 (10 µM) and BSA (10 µM) with increasing concentration of ibuprofen (0–15 µM), upon excitation at 280 nm. All emission spectra were recorded in the range of 200 to 800 nm.
Binding parameters KSV and Kq were calculated using the Stern-Volmer equation (Eq. 2):2 F0/F=1+Ksv[Analyte]=1+Kqτo[Analyte]
Fo denotes the emission intensity of derivative 31/BSA free from analyte (CT-DNA/ derivative 31), whereas, F denotes the emission intensity of derivative 31/BSA bound with analyte (CT-DNA/derivative 31). The values of KSV and Kq were determined from the plot of Fo/F vs. [analyte].
The binding parameters Kbin and n were determined using Scatchard equation (Eq. 3):3 logF0−F/F=logKbin+nlog[analyte]
Fo and F denote similar factors as those of the above Stern-Volmer equation. The values of Kbin and n were determined from the plot of log (Fo − F)/F vs. log [analyte].

[2] = NCI cytotoxicity screen, Non-Small Cell Lung Cancer panel; assay type: cell-based; details: Homo sapiens; EXVX; five dose 0.01–100 µM; read-out: LC50 (the source's name)
Method: Cytotoxicity was performed at National Cancer Institute (NCI), Bethesda, USA as per their protocols.

c1cn2cc(-c3ccc4ncn(C5CCCCC5)c4c3)nc(-c3ccc4c(c3)ncn4C3CCCCC3)c2n1 [Compound 31, 8-(1-cyclohexyl-1H-benzo[d]imidazol-5-yl)-6-(1-cyclohexyl-1H-benzo[d]imidazol-6-yl)imidazo[1,2-a]pyrazine]
apparent binding constant Kapp (EtBr-CT-DNA complex; EtBr displacement, Eq. 4): 750000 M⁻¹ | quenching constant (Stern-Volmer) (EtBr-CT-DNA complex; EtBr-CT-DNA 3 µM:30 µM, compound 0-80 µM): 11600 M⁻¹ | critical distance (Ro) [1]: 2.29 nm | distance between BSA and the compound (r) [1]: 2.08 nm | energy transfer efficiency (E) [1]: 64% | overlap integral value (J) [1]: 5.35 × 10^−15 cm^3 L mol^−1 | Ksv (Stern-Volmer constant) (CT-DNA; CT-DNA, pH 7.4, 298 K): 9300 M⁻¹ | Kq (apparent bimolecular quenching constant) (CT-DNA; CT-DNA, τo = 10^−8 s): 9.3e+11 M⁻¹ s⁻¹ | Kbin (CT-DNA; CT-DNA, Scatchard): 95800 M⁻¹ | binding constant (Kbin) (CT-DNA; CT-DNA, Scatchard): 95800 M⁻¹ | n (number of binding sites) (CT-DNA; CT-DNA, Scatchard): 1.21 | KSV (CT-DNA; CT-DNA, Stern-Volmer constant): 9300 M⁻¹ | Kq (CT-DNA; CT-DNA, apparent bimolecular quenching constant): 9.3e+11 M⁻¹ s⁻¹ | quenching of fluorescence intensity (CT-DNA; compound 5 µM, CT-DNA 0–50 µM): 75% | CC50 [2]: > 1000 nM

— paper PMC7162861, “Synthesis, cytotoxicity, pharmacokinetic profile, binding with DNA and BSA of new imidazo[1,2-a]pyrazine-benzo[d]imidazol-5-yl hybrids” (Scientific Reports, 2020)
